In US6117859A, “Method of relieving chronic inflammation by using 5-alkylsulfonylsalicylanilides” (The Research Foundation of State University of New York, priority 1999, dated 2000):

Legend:
[1] = Single dose oral tolerance in rats; format: in vivo, rat (male weaning Sprague-Dawley); conditions: single dose 2.5 or 0.75 g/kg in 5% CMC, 7 days
Procedure: To test for tolerance of the administered compounds, male weaning Sprague-Dawley rats were fed in a single dose of 2.5 or 0.75 g/kg of TMF-12, TMF-10, TMC-10 or TPC-10 in 5% carboxymethyl cellulose (CMC) or CMC alone. […] At completion of the 7 day observation period, necropsies were performed on all animals.

[2] = Solubility of representative compounds in various solvent systems; format: physicochemical
Procedure: The solubility of representative compounds of this invention in various solvent systems was determined. The solvents included ethanol, propylene glycol, SLS, Tween 80™ and combinations thereof.

[3] = tested on: ear weight gain produced by multiple doses of TPA in mice; assay: Chronic (multiple dose) TPA mouse ear inflammation assay, ear weight gain; format: in vivo, mouse (female CD-1); conditions: for % Inhibition of Ear Weight Gain, Relative to Hydrocortisone (HCV) = 100%: head prints 1.25 eg/ear; for Decrease in weight relative to TPA treated biopsies: 20 μg HCV/ear
Procedure: The acute skin inflammation model described in Example 1, tests the ability of a compound to prevent inflammation and thus must be applied prophylactically. Most clinical situations, however, are present as chronic inflammatory conditions. […] The effects of the compounds of the present invention and Salifluor on chronically inflamed skin was measured in the mouse ear model that utilizes multiple TPA doses over a 10-day period to produce the inflammatory response.
The assay used female CD-1 mice (7-9 weeks of age). Following a 2-week quarantine, mice were randomly assigned to test groups (5 mice/groups). TPA (10 uL of 0.01 TPA in acetone) was administered to both the inner and outer surface of each ear (2μg/ear) on day 0,2,4,7, and 9 on protocol. On Day 7,8 and 9, two applications of test article were applied to each ear 2 and 4 hours after dosing with TPA. The test articles were administered in 10 uL aliquots to both the inner and outer surface of each ear (20 μl total/dose). […] Hydrocortisone-17-valerate (HCV, 20μg/ear) was employed as a positive control. Mice were sacrificed at Day 10 on protocol and uniform punch biopsies (approximately 8 mm dia.) were taken from each ear. While on protocol, dermal irritation was scored semiquantitatively at Day 1,3,5,8, and 10.
(§1) Inhibition of TPA stimulated increased ear weight was used as an initial measure of efficacy for all of the agents tested. One biopsy from each mouse was also quick frozen and stored at -70° C. for later assay of myleoperoxidase, an enzyme associated with infiltrating PMN, or other measure of efficacy. The remaining biopsy from each mouse treated with Trifluorosal or HCV was fixed in formalin and processed for histopathologic evaluation, including measurement of cellular infiltration (PMNs, endothelial cells, macrophages) and epidermal thickness at 20 random sites along the length of the specimen.
Initially, a dose-response curve for multiple doses of TPA to produce mouse ear weight gain was generated in order to determine the concentration of TPA to be employed in the inhibition studies. […] Another major difference between the multiple TPA dose (or chronic assay for inflammation) and the single TPA dose (or acute assay for inflammation) in the mouse ear is sensitivity to Non-steroidal antiinflammatory drugs (NSAIDs) and antihistamines.

[4] = tested on: TPA treated mouse ear skin; assay: Histopathology of ear biopsies after multiple doses of TPA (epidermal thickness, dermal cellularity); format: in vivo, mouse (female CD-1)
Procedure: The assay used female CD-1 mice (7-9 weeks of age). Following a 2-week quarantine, mice were randomly assigned to test groups (5 mice/groups). TPA (10 uL of 0.01 TPA in acetone) was administered to both the inner and outer surface of each ear (2μg/ear) on day 0,2,4,7, and 9 on protocol. On Day 7,8 and 9, two applications of test article were applied to each ear 2 and 4 hours after dosing with TPA. The test articles were administered in 10 uL aliquots to both the inner and outer surface of each ear (20 μl total/dose). The candidate drugs were tested at several different concentrations (e.g., 5, 1.25, and 0.125 mg/ear) to determine a maximum effective dose within a range that could be effectively applied. Hydrocortisone-17-valerate (HCV, 20μg/ear) was employed as a positive control. Mice were sacrificed at Day 10 on protocol and uniform punch biopsies (approximately 8 mm dia.) were taken from each ear. While on protocol, dermal irritation was scored semiquantitatively at Day 1,3,5,8, and 10.
as §1
In order to confirm the subjective observations, quantitative determinations of 3 parameters (epidermal thickness, dermal thickness, and dermal cellularity) in the skin of negative controls (acetone), positive controls (TPA), and TPA treated skin treated with 3 doses of test article (Trifluorosal) and hydrocortisone were carried out. Epidermal thickness reflects the reactive proliferative activity induced by TPA in the […]: dermal thickness reflects primarily Ad edema but may also be affected by other phenomena, such as formation of granulation tissue, collagen synthesis, the activity of myofibroblasts, etc. Cellularity of the dermis is frequently used as a surrogate marker of inflammatory changes in the dermis.
Determination of the epidermal thickness was performed under the microscope with a calibrated scale placed in the eyepiece. Ten determinations were carried out in the epidermis covering the outside of the ear using a 40× objective and a 10× eyepiece (400× total). The measurements were taken from the basal side of the basal layer (basement membrane) to the outer side of the last nucleated cell of the […]. The average of the 10 measurements expressed in microns was entered in the table.
Determination of dermal thickness was performed using a similar technique. To avoid variability caused by the difference in sizes between the base and tip of the ear, only 3 measurements were performed in the center of the sample. The measurements were performed from the basement membrane of the external and internal epithelial and therefore include, in addition to both dermis (external and internal), the cartilage.
Cellularity of the dermis was calculated by projecting a calibrated grid into the dermis and counting cells in the known area of the dermis. Areas of hair follicles or sebaceous glands were avoided. Five fields were counted and the results were adjusted to the number of cells in 1,000 square microns.
The results of individual animals were entered in the table and the averages and standard deviation were calculated using an EXCEL database. In addition, the results were also expressed as a percentage of the control (acetone treated). Furthermore, the percentage of inhibition of the test articles were calculated using the following formula: [formula]

[5] = tested on: TPA induced mouse ear edema; assay: Acute TPA mouse ear inflammation assay, edema (ear weight); format: in vivo
Source text: The anti-inflammatory effect of selected compounds of this invention were compared to those of Triclosan™ and hydrocortisone in a modified […] (TPA) mouse ear inflammation assay. TPA was used as an inflammogen rather than croton oil because TPA gives a well characterized inflammatory response at very low concentrations. […] This model can therefore be used to study the pharmacokinetics, clinical efficacy and adverse side effects of anti-inflammatory agents. To quantitate inflammation, ear punches from treated animals were used to measure increased ear mass (edema) and myeloperoxidase (MPO) activity. For the inhibition studies, ear biopsies were weighed six hours after treatment with TPA and the simultaneous application of the compound of the present invention. All the compounds were diluted in acetone. Following this, the biopsies were frozen and subsequently used to measure inhibition of MPO activity, an estimate of polymorphonuclear (PMN) […] activity in the affected area. Percent inhibition of edema was calculated as [c-t]/c x 100, where c and t are increases in ear weight in control and treated mice, respectively.
Initially a dose-response curve for TPA-induced mouse ear edema was generated in order to determine the concentration of TPA to be employed in the inhibition studies. TPA produced a theoretical dose-response curve for edema with an ED50 of 80 ng/ear and an ED90 of 200 ng/ear in two separate experiments. ED50 is the dose at which 50% of the maximum effect was observed while ED90 is the dose at which 90% of the maximum effect was observed. […] The ED50 values for the compounds tested are as follows: […]

[6] = tested on: ear weight gain produced by multiple doses of TPA in mice; conditions: cited from earlier work
[7] = tested on: TPA induced mouse ear edema; conditions: cited from earlier work
[8] = in vivo; cited from earlier work
[9] = aqueous buffer, pH 10 K-buffer @ 35° C.
[10] = aqueous buffer, pH 10 Na-buffer @ 22° C.
[11] = organic solvent or mixture, Ethanol @ 19° C.
[12] = organic solvent or mixture, Propylene Glycol @ 20° C.
[13] = ph 10 na-buffer +0.5% sls, pH 10 Na-buffer @ 22° C. +0.5% SLS
[14] = inflammogen dose-response, two separate experiments, 6 hours

CCCCCCCCCCS(=O)(=O)c1ccc(O)c(C(=O)Nc2ccc(C#N)cc2)c1 [TPC-10]
Illness or deaths [1]: No illness or deaths occurred
solubility ([2]; +1% sls): 690 µg/mL
solubility ([2]; +2% sls): 910 µg/mL
solubility ([2]; +4% sls): 1810 µg/mL
solubility [2, 9]: 3.45 µg/mL
solubility [2, 10]: 9.16 µg/mL
solubility [2, 11]: 11500 µg/mL
solubility [2, 12]: 810 µg/mL
solubility [2, 13]: 300 µg/mL
% Inhibition of Ear Weight Gain, Actual ([3]; multiple doses of TPA): 0%
% Inhibition of Ear Weight Gain, Relative to Hydrocortisone (HCV) = 100% ([3]; multiple doses of TPA): 0%

CCCCCCCCCCS(=O)(=O)c1ccc(O)c(C(=O)Nc2cccc(C#N)c2)c1 [TMC-10]
Illness or deaths [1]: No illness or deaths occurred
solubility ([2]; +0.5% tween 80): 770 µg/mL
solubility ([2]; +1% sls): 4270 µg/mL
solubility ([2]; +1.5% tween 80): 2240 µg/mL
solubility ([2]; +2% SLS + 0.5% Tween 80): 3980 µg/mL
solubility ([2]; +2% SLS + 1.0% Tween 80): 4740 µg/mL
solubility ([2]; +2% SLS + 2.0% Tween 80): 5050 µg/mL
solubility ([2]; +2% sls): 6680 µg/mL
solubility ([2]; +3.0% tween 80): 4690 µg/mL
solubility ([2]; +4% sls): 7900 µg/mL
solubility [2, 9]: 5.58 µg/mL
solubility [2, 10]: 7.2 µg/mL
solubility [2, 11]: 36700 µg/mL
solubility [2, 12]: 1940 µg/mL
solubility [2, 13]: 3130 µg/mL
% Inhibition of Ear Weight Gain, Actual ([3]; multiple doses of TPA): 0%
% Inhibition of Ear Weight Gain, Relative to Hydrocortisone (HCV) = 100% ([3]; multiple doses of TPA): 0%

C[C@]12CCC(=O)C=C1CC[C@@H]1[C@@H]2[C@@H](O)C[C@@]2(C)[C@H]1CC[C@]2(O)C(=O)CO [Hydrocortisone, reference compound]
% Inhibition, Dermal Cellularity ([4]; 0.02 mg/ear): 78.6%
% Inhibition, Epidermal Thickness ([4]; 0.02 mg/ear): 58.6%
Blood vessel prominence (in words) ([4]; histopathology): Blood vessels were not as prominent
Cellularity of the dermis (in words) ([4]; histopathology, FIG. 1): reduced the epidermal thickness as well as the cellularity of the dermis
Epidermal thickness (in words) ([4]; histopathology, FIG. 1): reduced the epidermal thickness
Relative anti-inflammatory potency (in words) ([5]; acute assay): the most potent anti-inflammatory agent tested

CCCCC(=O)O[C@]1(C(=O)CO)CC[C@H]2[C@@H]3CCC4=CC(=O)CC[C@]4(C)[C@H]3[C@@H](O)C[C@@]21C [Hydrocortisone 17-valerate, Hydrocortisone-17-valerate, reference compound]
Decrease in weight relative to TPA treated biopsies ([3]; Assay #1): 71%
Decrease in weight relative to TPA treated biopsies ([3]; Assay #2): 107%
Inhibition of ear weight gain ([3]; 20μg/ear, first experiment): 86%

CN1C(C(=O)Nc2ccccn2)=C(O)c2ccccc2S1(=O)=O [piroxicam]
Sensitivity of chronic TPA assay to NSAIDs [6]: insensitive

CCCCCCCCCCCCCC(=O)O[C@@H]1[C@@H](C)[C@@]2(O)[C@@H](C=C(CO)C[C@]3(O)C(=O)C(C)=C[C@@H]23)[C@@H]2C(C)(C)[C@]12OC(C)=O [TPA, 12-tetradecanoyl 13-phorbol acetate, reference compound]
Histopathological change produced by multiple doses of TPA ([4]; multiple doses of TPA): dramatic hyperplasia of the epidermis as well as inflammatory changes in the dermis
ED50 for TPA-induced ear edema [5, 14]: 80 ng/ear
ED90 for TPA-induced ear edema [5, 14]: 200 ng/ear
Dose of TPA producing maximal ear weight gain ([3]; multiple doses of TPA): 2 μg/ear
Dose of TPA with marginal effects on ear weight gain ([3]; multiple doses of TPA): below 1 μg/ear

CCCCCCCCS(=O)(=O)c1ccc(O)c(C(=O)Nc2cccc(C(F)(F)F)c2)c1 [TMF-8]
% Inhibition of Ear Weight Gain, Actual ([3]; multiple doses of TPA): 0%
% Inhibition of Ear Weight Gain, Relative to Hydrocortisone (HCV) = 100% ([3]; multiple doses of TPA): 0%

COc1ccc2cc([C@H](C)C(=O)O)ccc2c1 [Naproxen]
Inhibition of acute TPA assay by NSAIDs [7]: inhibited

CC(C)Cc1ccc(C(C)C(=O)O)cc1 (stereo not shown) [Ibuprofen]
Inhibition of acute TPA assay by NSAIDs [7]: inhibited

O=C(O)Cc1ccccc1Nc1c(Cl)cccc1Cl [diclofenac]
Sensitivity of chronic TPA assay to NSAIDs [6]: insensitive

Oc1cc(Cl)ccc1Oc1ccc(Cl)cc1Cl [Triclosan, 2',4,4'-trichloro-2-hydroxy-diphenyl-ether]
Anti-inflammatory activity in clinical trials [8]: have been reported to have anti-inflammatory activity in clinical trials
